The NIST ThermoML archive (doi:10.1016/j.jct.2014.08.023)

Details: Liquid, Vibrating tube method

CC(C)OC(C)C [diisopropyl ether]
mass density [kg/m3]
Details	293.15 K	298.15 K	313.15 K	333.15 K	353.19 K	373.24 K	393.29 K
100 kPa	723.5	718.3	702.4	680.4	–	–	–
1000 kPa	724.3	719.5	703.7	682	659.5	635.5	609.5
5000 kPa	729.1	724.5	709.3	688.8	667.5	645.5	622.1
10000 kPa	734.5	730.2	715.7	696.3	676.4	656.1	634.9
15000 kPa	739.6	735.6	721.6	703.1	684.4	665.3	645.7
20000 kPa	744.5	740.5	727.1	709.3	691.5	673.4	655.1
25000 kPa	749	745.2	732	715	698	680.8	663.4
30000 kPa	753.3	749.6	737.1	720.4	704	687.6	671
35000 kPa	757.4	753.7	741.5	725.5	709.6	693.8	677.9
40000 kPa	761.3	757.7	745.8	730.2	714.8	699.6	684.3
45000 kPa	765	761.6	749.9	734.7	719.7	705	690.2
50000 kPa	768.6	765.2	753.8	739	724.5	710.1	695.7
55000 kPa	772.1	768.7	757.6	743.1	728.9	714.9	701
60000 kPa	775.4	772.1	761.3	747	733.1	719.5	705.9
65000 kPa	778.6	775.4	764.8	750.8	737.2	723.9	710.6
70000 kPa	781.7	778.5	768.1	754.3	741.1	728.1	715.1
80000 kPa	787.6	784.5	774.3	761.2	748.4	735.9	723.5
90000 kPa	793.2	790.3	780.4	767.7	755.3	743.2	731.3
100000 kPa	798.5	795.6	786	773.6	761.6	750	738.3
110000 kPa	803.6	800.8	791.4	779.3	767.7	756.3	745.2
120000 kPa	808.4	805.6	796.4	784.6	773.4	762.3	751.3
130000 kPa	812.9	810.3	801.3	789.8	778.8	768	757.4
140000 kPa	817.3	814.6	806	794.7	784	773.3	763
